From patent publication US8551999B2, “Heterocyclic compound and pharmaceutical composition thereof” (Otsuka Pharmaceutical Co., Ltd., priority 2007, dated 2013)

First: COc1ccc(C(=O)N2CCN(C(=O)c3cc4cc(Oc5ccc(N(C)C(=O)c6ccc(C(F)(F)F)cc6)cn5)ccc4n3C)CC2)cc1 [Example 241, N-(6-{2-[4-(4-Methoxybenzoyl)piperazine-1-carbonyl]-1-methyl-1H-indol-5-yloxy}pyridin-3-yl)-N-methyl-4-trifluoromethylbenzamide]
Second: Br.COc1ccc(CN2CCN(C(=O)c3cc4ccc(Oc5ccc(N(C)C(=O)c6ccc(C(F)(F)F)cc6)cn5)cc4n3C)CC2)cc1 [Example 322, N-(6-{2-[4-(4-Methoxybenzyl)piperazine-1-carbonyl]-1-methyl-1H-indol-6-yloxy}pyridin-3-yl)-N-methyl-4-trifluoromethylbenzamide hydrobromide]
The melting point of the first is lower: 126 to 128 °C for the first, 233 to 235 °C for the second.

First: C[C@@H]1CN(Cc2ccccn2)CCN1C(=O)c1cc2cc(Oc3ccc(NC(=O)c4ccc(C(F)(F)F)cc4)cn3)ccc2n1C.O=C(O)C(=O)O.O=C(O)C(=O)O [Example 392, N-{6-[1-Methyl-2-((R)-2-methyl-4-pyridin-2-ylmethylpiperazine-1-carbonyl)-1H-indol-5-yloxy]pyridin-3-yl}-4-trifluoromethyl-benzamide dioxalate]
Second: Br.Cn1c(C(=O)N2CCN(Cc3ccccn3)CC2)cc2c(Oc3ccc(NC(=O)c4ccc(C(F)(F)F)cc4)cn3)cccc21 [Example 246, N-{6-[1-Methyl-2-(4-pyridin-2-ylmethylpiperazine-1-carbonyl)-1H-indol-4-yloxy]pyridin-3-yl}-4-trifluoromethylbenzamide hydrobromide]
The melting point of the first is lower: 128 to 130 °C for the first, 186 to 189 °C for the second.

First: CC(C)Oc1ccc(CN2CCN(C(=O)c3cc4ccc(Oc5ccc(N(C)C(=O)c6ccc(C(F)(F)F)cc6)cn5)cc4n3C)CC2)cn1.O=C(O)/C=C\C(=O)O [Example 444, N-(6-{2-[4-(6-Isopropoxypyridin-3-ylmethyl)piperazine-1-carbonyl]-1-methyl-1H-indol-6-yloxy}pyridin-3-yl)-N-methyl-4-tri-fluoromethylbenzamide maleate]
Second: Br.CC(C)Cc1ccc(CN2CCN(C(=O)c3cc4ccc(Oc5ccc(N(C)C(=O)c6ccc(C(F)(F)F)cc6)cn5)cc4n3C)CC2)cc1 [Example 430, N-(6-{2-[4-(4-Isobutylbenzyl)piperazine-1-carbonyl]-1-methyl-1H-indol-6-yloxy}pyridin-3-yl)-N-methyl-4-trifluoromethylbenzamide hydrobromide]
The melting point of the first is lower: 156.8 to 157.4 °C for the first, 262 to 265 °C for the second.

Compared with Br.Br.Cn1c(C(=O)N2CCN(Cc3ccc(C#N)cn3)CC2)cc2cc(Oc3ccc(NC(=O)c4ccc(Cl)c(Cl)c4)cn3)ccc21 [Example 386, 3,4-Dichloro-N-(6-{2-[4-(5-cyanopyridin-2-ylmethyl)piperazine-1-carbonyl]-1-methyl-1H-indol-5-yloxy}pyridin-3-yl)benzamide dihydrobromide], Br.Cn1c(C(=O)N2CCN(Cc3ccc(OCCF)cc3)CC2)cc2cc(Oc3ccc(NC(=O)c4ccc(Cl)c(Cl)c4)cn3)ccc21 [Example 409, 3,4-Dichloro-N-[6-(2-{4-[4-(2-fluoroethoxy)benzyl]piperazine-1-carbonyl}-1-methyl-1H-indol-5-yloxy)pyridin-3-yl]benzamide hydrobromide] is higher in melting point: 216 to 219 °C for the first, 240 to 243 °C for the second.

First: Cc1cc(C)c(S(=O)(=O)Nc2ccc(Oc3ccc4cc(C(=O)N5CCN(Cc6ccc(OCC(F)(F)F)cc6)CC5)n(C)c4c3)nc2)c(C)c1.Cl
Second: CCCCS(=O)(=O)N(C)c1ccc(Oc2ccc3cc(C(=O)N4CCN(Cc5ccc(OCC(F)(F)F)cc5)CC4)n(C)c3c2)nc1.Cl
The melting point of the first is lower: 191.3 to 192.5 °C for the first, 253.6 to 254.4 °C for the second.

Compared with Br.CN(C(=O)c1ccc(C(F)(F)F)cc1)c1ccc(Oc2cccc3c2cc(C(=O)N2CCN(Cc4ccc(C#N)cc4)CC2)n3C)nc1 [Example 326, N-(6-{2-[4-(4-Cyanobenzyl)piperazine-1-carbonyl]-1-methyl-1H-indol-4-yloxy}pyridin-3-yl)-N-methyl-4-trifluoromethylbenzamide hydrobromide], Br.CN(c1ccc(C(F)(F)F)cc1)c1ccc(Oc2ccc3c(c2)cc(C(=O)N2CCN(Cc4ccccc4)CC2)n3C)nc1 [Example 336, (4-Benzylpiperazin-1-yl)(1-methyl-5-{5-[methyl(4-trifluoromethyl-phenyl)amino]pyridin-2-yloxyl}-1H-indol-2-yl)methanone hydrobromide] is lower in melting point: 273 to 276 °C for the first, 212 to 218 °C for the second.

First: CC(C)CN1CCN(C(=O)c2cc3ccc(Oc4ccc(NC(=O)c5ccc(C(F)(F)F)cc5)cn4)cc3n2C)CC1.Cl
Second: Br.Cc1cc(CN2CCN(C(=O)c3cc4cc(Oc5ccc(NC(=O)c6ccc(C(F)(F)F)cc6)cn5)ccc4n3C)CC2)no1 [Example 569, N-(6-{1-Methyl-2-[4-(5-methylisoxazol-3-ylmethyl)piperazine-1-carbonyl]-1H-indol-5-yloxy}pyridin-3-yl)-4-trifluoromethyl-benzamide hydrobromide]
The melting point of the first is higher: 270.2 to 272.2 °C for the first, 220 to 223 °C for the second.

First: Br.Br.COc1ccc(CN2CCN(C(=O)c3cc4cc(Oc5ccc(NC(=O)c6ccc(C(F)(F)F)cn6)cn5)ccc4n3C)CC2)cc1 [Example 230, 5-Trifluoromethylpyridine-2-carboxylic acid (6-{2-[4-(4-methoxy-benzyl)piperazine-1-carbonyl]-1-methyl-1H-indol-5-yloxy}pyridin-3-yl)amide dihydrobromide]
Second: Br.COc1ccc(CN2CCN(C(=O)c3cc4cc(Oc5ccc(NC(=O)c6ccc(C(F)(F)F)c(C)c6)cn5)ccc4n3C)CC2)cc1 [Example 19, N-(6-{2-[4-(4-Methoxybenzyl)piperazine-1-carbonyl]-1-methyl-1H-indol-5-yloxy}pyridin-3-yl)-3-methyl-4-trifluoromethylbenzamide hydrobromide]
The melting point of the first is higher: 241 to 243 °C for the first, 188 to 191 °C for the second.

First: CS(=O)(=O)O.CS(=O)(=O)O.Cc1c(Oc2ccc(NC(=O)c3ccc(C(F)(F)F)cc3)cn2)ccc2c1cc(C(=O)N1CCN(Cc3ccccn3)CC1)n2C [Example 234, N-{6-[1,4-Dimethyl-2-(4-pyridin-2-ylmethylpiperazine-1-carbonyl)-1H-indol-5-yloxy]pyridin-3-yl}-4-trifluoromethylbenzamide bismethanesulfonate]
Second: Br.Cn1c(C(=O)N2CCN(Cc3ccc4c(c3)OCO4)CC2)cc2cc(Oc3ccc(NC(=O)c4ccc(C(F)(F)F)cc4)cn3)ccc21 [Example 8, N-{6-[2-(4-Benzo[1,3]dioxol-5-ylmethylpiperazine-1-carbonyl)-1-methyl-1H-indol-5-yloxy]pyridin-3-yl}-4-trifluoromethylbenzamide hydrobromide]
The melting point of the first is lower: 149 to 150 °C for the first, 240 to 244 °C for the second.

First: Br.Br.Cc1cc(Oc2ccc3c(c2)cc(C(=O)N2CCN(Cc4cccnc4)CC2)n3C)ncc1NC(=O)c1ccc(C(F)(F)F)cc1 [Example 404, N-{4-Methyl-6-[1-methyl-2-(4-pyridin-3-ylmethylpiperazine-1-carbonyl)-1H-indol-5-yloxy]pyridin-3-yl}-4-trifluoromethyl-benzamide dihydrobromide]
Second: CC(C)Oc1ccc(CN2CCN(C(=O)c3cc4ccc(Oc5ncc(NC(=O)c6ccc(C(F)(F)F)cc6)cn5)cc4n3C)CC2)cc1.Cl
The melting point of the first is lower: 215 to 217 °C for the first, 249.8 to 251 °C for the second.

First: CCOc1ccc(CN2CCN(C(=O)c3cc4cc(Oc5ccc(N(C)C(=O)c6ccc(Cl)c(Cl)c6)c(C)n5)ccc4n3C)CC2)cc1.O=C(O)/C=C\C(=O)O [Example 372, 3,4-Dichloro-N-(6-{2-[4-(4-ethoxybenzyl)piperazine-1-carbonyl]-1-methyl-1H-indol-5-yloxy}-2-methylpyridin-3-yl)-N-methylbenzamide maleate]
Second: Br.CN(C(=O)c1ccc(Cl)c(Cl)c1)c1ccc(Oc2ccc3c(c2)cc(C(=O)N2CCN(Cc4ccc5c(c4)OCO5)CC2)n3C)nc1 [Example 6, N-{6-[2-(4-Benzo[1,3]dioxol-5-ylmethylpiperazine-1-carbonyl)-1-methyl-1H-indol-5-yloxy]pyridin-3-yl}-3,4-dichloro-N-methyl-benzamide hydrobromide]
The melting point of the first is lower: 131 to 132 °C for the first, 222 to 226 °C for the second.

Compared with Cc1ccc(S(=O)(=O)N(C)c2ccc(Oc3ccc4cc(C(=O)N5CCN(Cc6ccc7c(c6)OCO7)CC5)n(C)c4c3)nc2)cc1.Cl, CCCOc1ccc(CN2CCN(C(=O)c3cc4ccc(Oc5ccc(NC(=O)c6ccc(C(F)(F)F)cc6F)cn5)cc4n3C)CC2)cc1.Cl is higher in melting point: 242 to 249 °C for the first, 264 to 266.3 °C for the second.

For Br.Cn1c(C(=O)N2CCN(Cc3ccc(OCC(F)F)cc3)CC2)cc2ccc(Oc3ccc(NC(=O)c4ccc(Cl)c(Cl)c4)cn3)cc21 [Example 268, 3,4-Dichloro-N-[6-(2-{4-[4-(2,2-difluoroethoxy)benzyl]piperazine-1-carbonyl}-1-methyl-1H-indol-6-yloxy)pyridin-3-yl]benzamide hydrobromide], the melting point was 221.5 to 222.3 °C.

With Br.CC(C)Oc1ccc(CN2CCN(C(=O)c3cc4ccc(Oc5ccc(NC(=O)c6ccc(OC(F)(F)F)cc6)cn5)cc4n3C)CC2)cc1 [Example 251, N-(6-{2-[4-(4-Isopropoxybenzyl)piperazine-1-carbonyl]-1-methyl-1H-indol-6-yloxy}pyridin-3-yl)-4-trifluoromethoxybenzamide hydrobromide] the melting point was 265 to 267 °C (dec.).
For Br.Cn1c(C(=O)N2CCN(Cc3ccc4c(c3)OCO4)CC2)cc2cc(Oc3ccc(NC(=O)c4ccc(-n5cccc5)cc4)cn3)ccc21 [Example 11, N-{6-[2-(4-Benzo[1,3]dioxol-5-ylmethylpiperazine-1-carbonyl)-1-methyl-1H-indol-5-yloxy]pyridin-3-yl}-4-pyrrol-1-ylbenzamide hydrobromide], the melting point was 227 to 232 °C (dec.).
With Br.Cn1c(C(=O)N2CCN(Cc3ccc(OCC(F)(F)F)cc3)CC2)cc2cc(Oc3ccc(NC(=O)c4ccc(C(F)(F)F)cc4O)cn3)ccc21 [Example 267, 2-Hydroxy-N-[6-(1-methyl-2-{4-[4-(2,2,2-trifluoroethoxy)benzyl]-piperazine-1-carbonyl}-1H-indol-5-yloxy)pyridin-3-yl]-4-tri-fluoromethylbenzamide hydrobromide] the melting point was 214 to 219 °C (dec.).
